Results: PMC3022839 (BMC Medical Imaging, 2011)
Values belong to the molecule of their own block, whether it stands above or below them.

Key:
[1] = Tariquidar plasma concentration (LC/MS); assay type: in vivo; conditions: Sprague-Dawley, rat, intravenous, 15 mg/kg, 2 hours after tariquidar 15 mg/kg i.v., mean ± s.d.
[2] = Population mixed effects modelling (NONMEM) of (R)-[11C]verapamil plasma kinetics; conditions: tariquidar 15 mg/kg i.v. co-administration vs vehicle
Text: Plasma time-activity curves were corrected for tracer metabolism before they were used as input for kinetic modelling. […] Two types of corrections were used: (1) complete metabolite correction and (2) correction only for polar metabolites. […] Mathematically, this is described by the following equations:
Nonlinear mixed effects modelling, using NONMEM VI (GloboMax LLC, Hanover, MD, USA), provide a tool for analyzing repeated measurements data in which the relationship between the explanatory and response variables can be modeled as a single function, allowing the parameters to differ between individuals. In addition, these techniques recognize that the variability associated with the response variable for a given individual may depend on the response value in a way that is similar for all individuals. This could be due, for example, to properties associated with measurement error.
Data from all rats was processed simultaneously. The subroutine ADVAN 9 and first-order conditional estimation with interaction were used throughout the modelling procedure. […]
(§1) The NONMEM model was constructed in two steps. […] One, two and three compartment models were evaluated. […] Again, one and two compartment models were evaluated, and treatment, rat group and animal weight were included as covariates. […]

18FDG brain uptake (PET) = assay type: in vivo, rat; conditions: 60 minutes after injection
Text: No post-reconstruction filtering was applied.

P-glycoprotein (P-gp) = test: P-gp expression in brain capillaries (immunohistochemistry, C219); assay type: in vivo, rat; conditions: kainate vs saline treated rats, 7 days after treatment; cortex and hippocampus CA1
Sprague-Dawley rats = test: Kainate-induced status epilepticus; assay type: in vivo, rat
Method: Adult male Sprague-Dawley rats (n = 50, Harlan, Horst, The Netherlands) weighing 200-224 g at arrival were housed in groups of 5-6 per cage until treatment. They were kept at a constant temperature of 21°C and at a 12 h light/dark cycle, in which lights were switched on at 8:00 AM. Animals had unrestricted access to food (Teklad Global 16% Protein Rodent Diet, Harlan, Madison, WI, USA) and water. Animal procedures were performed in accordance with Dutch laws on animal experimentation. All experiments were approved by the Ethics Committee for Animal Experiments of Leiden University (approval number UDEC08178). After approximately one week of habituation and 7 days prior to PET investigation rats were treated with either kainic acid (5 mg/mL) or saline. Kainic acid was administered repeatedly as a 10 mg/kg (2 mL/kg) i.p. injection followed by 5 mg/kg (1 mL/kg) i.p. every 30-60 minutes until stage IV seizures according to Racine's scale occurred, or when a total amount of 30 mg/kg kainic acid was reached. Control rats were treated with 3 saline i.p. injections using the same volumes as for the kainate treated rats, 30 minutes apart. After treatment rats were housed individually.

[3] = tested on: P-glycoprotein (P-gp) at the blood-brain barrier; test: Population mixed effects modelling (NONMEM) of (R)-[11C]verapamil brain kinetics
Method: Rats from the different groups were randomly assigned to experimental days and scanned in pairs for 60 minutes using a double LSO/LYSO layer High Resolution Research Tomograph (HRRT, CTI/Siemens, Knoxville, TN, USA) [37]. […] The other half was treated only with vehicle (3 mL/kg). […] The purpose of the ^18FDG scan was to outline the brain to aid in defining regions of interest. The HRRT scanner acquires data in list mode, enabling post-scan definition of the frame sequence. The final frame sequence used for analysis was 6 × 10, 2 × 30, 3 × 60, 2 × 150, 2 × 300 and 4 × 600 seconds. Studies were reconstructed using an iterative 3 D ordered-subsets weighted least-squares (3D-OSWLS) method with 8 iterations and 16 subsets [39]. No post-reconstruction filtering was applied. […]
PET image data were analyzed using the freely available software package Amide 0.8.22 [44]. […] To correct for an intravascular contribution, radioactivity measured in whole blood was exponentially interpolated to obtain blood radioactivity values at each mid frame time point and then subtracted from the brain time-activity curves, assuming that cerebral blood volume was 3% of the total brain volume [45]. […]
as §1

concentration at 2 h ([1]; kainate group): 1600 ± 300 ng/mL
concentration at 2 h ([1]; saline group): 1800 ± 300 ng/mL
Compound: COc1cc2c(cc1OC)CN(CCc1ccc(NC(=O)c3cc(OC)c(OC)cc3NC(=O)c3cnc4ccccc4c3)cc1)CC2 [tariquidar, Tariquidar]
Covariate tariquidar on Vp1 of (R)-[11C]verapamil (fractional difference) [2]: 1.20 (0.119)

18FDG brain uptake, SUV (18FDG brain uptake (PET); kainate treated rats, mean ± s.d.): 2.0 ± 0.4
18FDG brain uptake, SUV (18FDG brain uptake (PET); saline treated rats, mean ± s.d.): 1.6 ± 0.3
18FDG brain uptake, SUV (18FDG brain uptake (PET); with or without tariquidar co-administration (both groups)): 1.8 ± 0.4
Compound: O=C[C@H]([18F])[C@@H](O)[C@H](O)[C@H](O)CO [^18FDG]

Compound: C=C(C)[C@H]1CN[C@H](C(=O)O)[C@H]1CC(=O)O [kainic acid]
P-gp expression, P-gp labelled surface area (P-glycoprotein (P-gp)): trend towards higher P-gp expression
P-gp expression, optical density (P-glycoprotein (P-gp)): no difference
duration of seizures (Sprague-Dawley rats; after kainic acid i.p.): 1 to 2 h
seizure stage reached (Racine's scale) (Sprague-Dawley rats; kainic acid i.p. 10 mg/kg then 5 mg/kg every 30-60 minutes, all rats, except one): stage IV-V seizures
rats that died as a result of treatment (Sprague-Dawley rats; kainic acid i.p., up to 30 mg/kg): Four
time to status epilepticus after the last injection (Sprague-Dawley rats; typically 3 injections, i.e. 20 mg/kg i.p.): ≤ 20 min
Covariate kainate on Vbr1 of (R)-[11C]verapamil (fractional difference) ([3]; kainate vs saline treated rats, 7 days after treatment): 1.32 (0.416)
increase of Vbr1 of (R)-[11C]verapamil in kainate treated compared to saline treated rats ([3]; population model, rat group as covariate, 7 days after kainate): 32%
